Experimental data taken from patent US20160083429A1, “COMPOSITIONS AND METHODS FOR ENDOTOXIN NEUTRALIZATION” (Immunotrex Biologics, Inc., priority 2014, published 2016).

Tests used:
[1] = ESI-MS detection of peptide-Lipid-A complex formation; type: binding; details: CHL/MeOH/H2O solutions; D-Lipid-A 0.005 mg/mL
Protocol: In this example, electrospray ionization mass spectrometry experiments were carried out on Lipid-A (D-Lipid-A) and peptides WK-11, KK-12, KK-11 under a variety of solution and mass spectrometry conditions. Binding of D-Lipid-A to WK-11, KK-12, KK-11 peptides was observed by mass spectrometry methods, as quite abundant ion (LipidA-peptide) complexes were detected from CHL/MeOH/H2O solutions.
Materials: Three peptides KFFKKFFKFFKK (SEQ ID NO: 1; KK-12), WKKWWKKWWKK (SEQ ID NO: 2; WK-11), and KKKKFFFKFFK (SEQ ID NO: 3; KK-11) were ordered from a custom commercial synthesis. Diphosphoryl Lip-A (D-Lipid-A) (C94O25N2P2H178) was obtained from Sigma.
Chemicals: chloroform (CHL), methanol (MeOH), Water (H2O), triethylamine (TEA), ammonium acetate.
Instrumentation: Micro-TOF ESI-MS (Bruker Daltonics); Q-Star-XL nano-ESI-MS (AB-SCIEX).
Solubility studies were performed in order to optimize the solubility of both the peptides and diphosphoryl Lipid A. Solution conditions for electrospray ionization mass spectrometry experiments on diphosphoryl Lipid A and peptides were evaluated using (CHL)X(MeOH)Y(H2O)Z, where X=0-70%; Y=0-70%; and Z=0-95%.
In one experiment, Diphosphoryl Lipid A (0.005 mg/mL) and WK-11 (0.005 mg/mL) were dissolved in 70% CHL/30% MeOH/0.5% water and evaluated by ESI-MS. Electrospray ionization mass spectrometry (ESI-MS) of peptide WK-11 and Lipid-A and detection of complex formation is shown in FIG. 6. Single circles show fragments assigned to the peptide. Double circles show lipid A bound to peptide WK-11.
In another experiment, Diphosphoryl Lipid A (0.005 mg/mL) and KK-12 (0.005 mg/mL) were dissolved in 70% CHL/30% MeOH/0.5% water and evaluated by ESI-MS. Single circles show fragments assigned to the peptide. Double circles show lipid A bound to peptide KK-12.
In another experiment, Diphosphoryl Lipid A (0.005 mg/mL) and KK-11 (0.015 mg/mL) were dissolved in 30% CHL/68% MeOH/2% water and evaluated by ESI-MS. Single circles show fragments assigned to the peptide. Double circles show lipid A bound to peptide KK-11.

[2] = ESI-MS competition ranking of Lipid A-binding propensities of peptides; details: for relative binding affinity Ka with D-Lipid-A, competition KK-12 vs KK-11 / relative binding affinity Ka with D-Lipid-A, competition WK-11 vs KK-11 / relative binding affinity Ka with D-Lipid-A, competition WK-11 vs KK-12: 0.0032 mg/mL each peptide; for relative binding affinity Ka with D-Lipid-A, competition KK-12 vs KK-11: D-lipid-A 0.005 mg/mL; for relative binding affinity Ka with D-Lipid-A, competition WK-11 vs KK-11: increasing D-lipid-A, FIG. 20B; for relative binding affinity Ka with D-Lipid-A, competition WK-11 vs KK-11 / relative binding affinity Ka with D-Lipid-A, competition WK-11 vs KK-12: R-ratios; for rank order of relative binding affinities (Ka) to D-lipid-A, combined data of Example 4: combined competition data; for relative binding affinity Ka with D-Lipid-A, competition WK-11 vs KK-12: D-lipid-A 0.001-0.0050 mg/mL, FIG. 20A
Text: ESI-MS based methods were used to rank binding affinities of peptides WK-11, KK-12, and KK-11 to diphosphoryl lipid A in CHL/MeOH/H2O, 45%/55%/0.05%, unless otherwise specified.
Materials and Chemicals were the same as shown in Example 3.
Instrumentation included Micro-TOF ESI-MS (Bruker Daltonics); FT-ICR-MS NanoDrop-2000 UV-Vis Spectrophotometer.
A series of ESI-MS competition experiments were designed to determine relative binding intensities of peptide-lipid A complexes in ESI-MS while varying the concentration of the D-lipid-A.
Then, an equal concentration of both peptides was employed, while increasing the concentration of the D-lipid-A in three experiments, as shown in FIGS. 12-14. Double circles surround lipid-A bound to peptide WK-11 (“1”) or lipid-A bound to KK-12 (“2”).
Resultant signal intensities of peptides and their complexes with D-lipid-A were used to plot R-ratios, determined as in Eq. 1, against D-Lipid-A concentrations.
R═Itotal(peptide:Lipid)/Itotal(peptide) [Eq. 1]
Comparison of the corresponding R-functions allows us to rank the peptides Ka binding constants, assuming that the value of the ratio between signal-response factors of complexes is approximately the same or deviates only weakly from the one for corresponding free peptides.
Then, an equal concentration of both peptides was employed, while increasing the concentration of the D-lipid-A in three experiments, two of which are shown in FIGS. 17-18. Double circles surround lipid-A bound to peptide WK-11 (“1”) or lipid-A bound to KK-11 (“2”).
Resultant signal intensities of peptides and their complexes with D-lipid-A were used to plot R-ratios, determined as in Eq. 1, against D-Lipid-A concentrations, as in Example 4B.

THP-1 cell line = test: Peptides block effect of LPS in THP-1 cell line; type: cell-based, human; details: THP-1 stimulated with LPS 1 mg/mL, treated after 24 hours with peptide 0.5 mg/mL
Protocol: THP-1 is a human monocytic cell line derived from an acute monocytic leukemia patient. It is typically used to test immunocytochemical analysis of protein-protein interaction and immunohistochemistry. THP-1 cell line can provide continuous culture, grown in suspension, for example, RPMI 1640+10% FBS+2 mM L-glutamine. The average doubling time is 35 to 50 hrs. To inhibit bacterial growth, 1 mM sodium pyruvate, penicillin (100 units/mL) or streptomycin (100 ug/mL) can be employed. Cultures are typically maintained at between 2-9×10^5 cells/mL at 37 degrees C., and 5% CO2. The cells are generally non-adhesive.
THP-1 cell line in culture was stimulated with 1 mg/mL LPS.
In contrast, THP-1 stimulated with LPS (1 mg/mL) and then treated after 24 hours with Peptide 1 (KK-12)(SEQ ID NO: 1) (0.5 mg/mL).

Substance	binding to Lipid A (complex formation detected by ESI-MS) [1]	relative binding affinity Ka with D-Lipid-A, competition KK-12 vs KK-11 [2]	relative binding affinity Ka with D-Lipid-A, competition WK-11 vs KK-11 [2]	rank order of relative binding affinities (Ka) to D-lipid-A, combined data of Example 4 [2]	relative binding affinity Ka with D-Lipid-A, competition WK-11 vs KK-12 [2]	effect on LPS-stimulated THP-1 cells (cell adherence, outer membrane shape and color) (THP-1 cell line)
Angiotensin (DRVYIHPFHL; Angiotensin-1; UniProt P01019 25-34, looked up) [control standard peptide with size similar to KDEON peptides, reference compound]	no sign of binding propensity to D-Lipid-A					
KKKKFFFKFFK [KK-11]	specifically binds to Lipid A	Ka(KK-11)>Ka (KK-12)	Ka(WK-11)≧Ka(KK-11)	Ka(WK-11)≧Ka(KK-11)>Ka(KK-12)		
WKKWWKKWWKK [WK-11]	specifically binds to Lipid A		Ka(WK-11)≧Ka(KK-11)	Ka(WK-11)≧Ka(KK-11)>Ka(KK-12)	Ka(WK-11)>Ka(KK-12)	
KFFKKFFKFFKK [KK-12]	specifically binds to Lipid A	Ka(KK-11)>Ka (KK-12)		Ka(WK-11)≧Ka(KK-11)>Ka(KK-12)	Ka(WK-11)>Ka(KK-12)	appears to reverse the effects of LPS
